Assays:
Experiment in all cases: biochemical
Design in all cases: KINOMEscan scanMAX active site-directed competition binding assay, percent of control, 468 kinases
Settings in all cases: competition binding, percent of control
[1] = target: T1, ABL1(T315I)-nonphosphorylated (Homo sapiens, UniProt P00519, T315I)
T1 construct: nonphosphorylated
How it was run: (§1)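 KINOMEscan active site-directed competition binding assay against 468 human kinases with 100 μM S-carvone. Binding expressed as % of control, with 35% of control as the inhibition threshold.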

TNK2 = TNK2 (Homo sapiens, UniProt Q07912)
How it was run: as §1

MEK6 = target: T2, MEK6 (Homo sapiens, UniProt P52564)
T2 construct: gene MAP2K6
How it was run: as §1

MAPKAPK2 = MAPKAPK2 (Homo sapiens, UniProt P49137)
How it was run: as §1

CHEK1 = CHEK1 (Homo sapiens, UniProt O14757)
How it was run: as §1

[2] = target: T3, ABL1(M351T)-phosphorylated (Homo sapiens, UniProt P00519, M351T)
T3 construct: phosphorylated
How it was run: as §1

VPS34 = target: T4, VPS34 (Homo sapiens, UniProt Q8NEB9)
T4 construct: gene PIK3C3
How it was run: as §1

KIT(L576P) = KIT(L576P) (Homo sapiens, UniProt P10721, L576P)
How it was run: as §1

EGFR(L747-T751del,Sins) = EGFR(L747-T751del,Sins) (Homo sapiens, UniProt P00533, DEL747-750/T751S)
How it was run: as §1

EPHB1 = EPHB1 (Homo sapiens, UniProt P54762)
How it was run: as §1

CSNK1A1L = CSNK1A1L (Homo sapiens, UniProt Q8N752)
How it was run: as §1

EPHA5 = EPHA5 (Homo sapiens, UniProt P54756)
How it was run: as §1

ROCK2 = ROCK2 (Homo sapiens, UniProt O75116)
How it was run: as §1

PDGFRA = PDGFRA (Homo sapiens, UniProt P16234)
How it was run: as §1

p38-beta = target: T5, p38-beta (Homo sapiens, UniProt Q15759)
T5 construct: gene MAPK11
How it was run: as §1

DMPK = DMPK (Homo sapiens, UniProt Q09013)
How it was run: as §1

TNNI3K = TNNI3K (Homo sapiens, UniProt Q59H18)
How it was run: as §1

CDK9 = CDK9 (Homo sapiens, UniProt P50750)
How it was run: as §1

CLK1 = CLK1 (Homo sapiens, UniProt P49759)
How it was run: as §1

EPHB3 = EPHB3 (Homo sapiens, UniProt P54753)
How it was run: as §1

STK33 = STK33 (Homo sapiens, UniProt Q9BYT3)
How it was run: as §1

CHEK1, sequence (O14757 whole entry): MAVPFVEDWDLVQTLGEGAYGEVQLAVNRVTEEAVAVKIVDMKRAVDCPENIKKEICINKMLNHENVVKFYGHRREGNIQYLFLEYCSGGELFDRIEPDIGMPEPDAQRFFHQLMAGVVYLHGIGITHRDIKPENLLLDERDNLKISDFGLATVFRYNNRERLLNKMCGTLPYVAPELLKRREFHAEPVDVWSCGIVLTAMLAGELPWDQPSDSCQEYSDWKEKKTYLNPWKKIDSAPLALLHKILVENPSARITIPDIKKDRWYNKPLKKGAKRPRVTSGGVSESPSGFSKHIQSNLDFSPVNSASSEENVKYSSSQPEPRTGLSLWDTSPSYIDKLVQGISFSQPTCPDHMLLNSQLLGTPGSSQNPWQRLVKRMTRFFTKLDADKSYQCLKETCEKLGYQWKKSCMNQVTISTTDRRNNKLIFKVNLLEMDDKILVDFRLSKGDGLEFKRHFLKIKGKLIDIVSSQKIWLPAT
PDGFRA, sequence (P16234 whole entry): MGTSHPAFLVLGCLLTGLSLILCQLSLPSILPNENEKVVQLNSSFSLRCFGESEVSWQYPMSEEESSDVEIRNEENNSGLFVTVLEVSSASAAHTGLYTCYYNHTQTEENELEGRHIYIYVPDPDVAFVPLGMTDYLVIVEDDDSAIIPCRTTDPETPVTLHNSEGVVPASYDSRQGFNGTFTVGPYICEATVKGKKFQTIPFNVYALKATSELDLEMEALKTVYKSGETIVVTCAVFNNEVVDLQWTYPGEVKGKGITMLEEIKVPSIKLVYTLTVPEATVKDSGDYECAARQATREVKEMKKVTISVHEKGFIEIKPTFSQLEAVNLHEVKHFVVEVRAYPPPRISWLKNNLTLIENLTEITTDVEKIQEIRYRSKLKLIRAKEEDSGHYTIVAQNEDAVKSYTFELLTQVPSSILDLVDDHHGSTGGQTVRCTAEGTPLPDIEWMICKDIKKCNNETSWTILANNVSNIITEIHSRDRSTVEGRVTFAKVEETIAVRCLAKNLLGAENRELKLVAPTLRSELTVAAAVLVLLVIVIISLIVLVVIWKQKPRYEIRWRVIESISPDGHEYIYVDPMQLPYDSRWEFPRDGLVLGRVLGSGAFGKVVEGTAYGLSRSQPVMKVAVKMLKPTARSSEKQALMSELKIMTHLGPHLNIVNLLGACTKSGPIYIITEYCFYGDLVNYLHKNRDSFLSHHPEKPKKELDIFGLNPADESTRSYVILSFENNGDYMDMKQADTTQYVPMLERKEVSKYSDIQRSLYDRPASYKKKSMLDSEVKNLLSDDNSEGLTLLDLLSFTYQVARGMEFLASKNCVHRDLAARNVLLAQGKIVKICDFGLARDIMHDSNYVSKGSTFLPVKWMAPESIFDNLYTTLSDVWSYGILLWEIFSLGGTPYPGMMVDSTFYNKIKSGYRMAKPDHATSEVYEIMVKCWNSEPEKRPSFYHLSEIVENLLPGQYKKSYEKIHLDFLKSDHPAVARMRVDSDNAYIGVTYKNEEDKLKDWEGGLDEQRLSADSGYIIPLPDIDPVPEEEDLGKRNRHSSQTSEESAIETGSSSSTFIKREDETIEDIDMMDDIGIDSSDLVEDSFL
T2 sequence (P52564 whole entry): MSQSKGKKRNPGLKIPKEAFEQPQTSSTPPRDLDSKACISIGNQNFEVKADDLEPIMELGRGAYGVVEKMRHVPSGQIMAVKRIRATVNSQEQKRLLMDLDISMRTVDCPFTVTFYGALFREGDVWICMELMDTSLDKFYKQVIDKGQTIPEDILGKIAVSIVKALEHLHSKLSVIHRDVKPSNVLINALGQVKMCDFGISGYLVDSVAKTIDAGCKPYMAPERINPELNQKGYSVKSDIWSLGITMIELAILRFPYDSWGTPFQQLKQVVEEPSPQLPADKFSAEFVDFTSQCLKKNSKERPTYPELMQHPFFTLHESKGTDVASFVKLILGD
CDK9, sequence (P50750 whole entry): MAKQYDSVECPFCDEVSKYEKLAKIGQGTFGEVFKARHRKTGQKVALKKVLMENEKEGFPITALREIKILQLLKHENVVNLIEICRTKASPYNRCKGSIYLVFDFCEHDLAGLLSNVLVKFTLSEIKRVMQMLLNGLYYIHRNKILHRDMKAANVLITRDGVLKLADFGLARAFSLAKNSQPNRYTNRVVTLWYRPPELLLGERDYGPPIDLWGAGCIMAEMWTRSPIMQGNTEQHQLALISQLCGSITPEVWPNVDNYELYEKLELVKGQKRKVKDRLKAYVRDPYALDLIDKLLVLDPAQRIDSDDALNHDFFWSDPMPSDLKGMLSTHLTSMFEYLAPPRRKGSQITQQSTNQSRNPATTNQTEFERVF
CLK1, sequence (P49759 whole entry): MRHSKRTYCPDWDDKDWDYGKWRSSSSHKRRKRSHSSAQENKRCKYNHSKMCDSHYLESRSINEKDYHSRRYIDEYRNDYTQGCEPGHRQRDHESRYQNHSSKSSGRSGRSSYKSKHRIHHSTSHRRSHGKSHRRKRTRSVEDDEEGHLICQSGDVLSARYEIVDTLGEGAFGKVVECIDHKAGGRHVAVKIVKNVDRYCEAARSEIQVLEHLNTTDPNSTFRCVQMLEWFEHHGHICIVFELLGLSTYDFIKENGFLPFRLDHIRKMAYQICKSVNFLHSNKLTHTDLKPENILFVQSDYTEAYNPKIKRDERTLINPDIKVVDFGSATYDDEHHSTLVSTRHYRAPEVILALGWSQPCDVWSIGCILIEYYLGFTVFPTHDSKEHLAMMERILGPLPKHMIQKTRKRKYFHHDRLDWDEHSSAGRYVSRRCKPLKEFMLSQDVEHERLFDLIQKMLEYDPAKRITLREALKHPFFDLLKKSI
CSNK1A1L, sequence (Q8N752 whole entry): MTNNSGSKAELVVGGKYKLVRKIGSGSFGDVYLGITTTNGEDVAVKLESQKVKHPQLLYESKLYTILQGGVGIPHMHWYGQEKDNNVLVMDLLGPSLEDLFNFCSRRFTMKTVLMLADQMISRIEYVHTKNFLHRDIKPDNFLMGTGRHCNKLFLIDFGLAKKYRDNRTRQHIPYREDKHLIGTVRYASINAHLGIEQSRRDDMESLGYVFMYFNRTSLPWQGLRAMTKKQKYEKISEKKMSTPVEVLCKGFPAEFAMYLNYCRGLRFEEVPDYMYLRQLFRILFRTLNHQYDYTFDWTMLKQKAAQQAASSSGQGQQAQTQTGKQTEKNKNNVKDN
EPHB3, sequence (P54753 whole entry): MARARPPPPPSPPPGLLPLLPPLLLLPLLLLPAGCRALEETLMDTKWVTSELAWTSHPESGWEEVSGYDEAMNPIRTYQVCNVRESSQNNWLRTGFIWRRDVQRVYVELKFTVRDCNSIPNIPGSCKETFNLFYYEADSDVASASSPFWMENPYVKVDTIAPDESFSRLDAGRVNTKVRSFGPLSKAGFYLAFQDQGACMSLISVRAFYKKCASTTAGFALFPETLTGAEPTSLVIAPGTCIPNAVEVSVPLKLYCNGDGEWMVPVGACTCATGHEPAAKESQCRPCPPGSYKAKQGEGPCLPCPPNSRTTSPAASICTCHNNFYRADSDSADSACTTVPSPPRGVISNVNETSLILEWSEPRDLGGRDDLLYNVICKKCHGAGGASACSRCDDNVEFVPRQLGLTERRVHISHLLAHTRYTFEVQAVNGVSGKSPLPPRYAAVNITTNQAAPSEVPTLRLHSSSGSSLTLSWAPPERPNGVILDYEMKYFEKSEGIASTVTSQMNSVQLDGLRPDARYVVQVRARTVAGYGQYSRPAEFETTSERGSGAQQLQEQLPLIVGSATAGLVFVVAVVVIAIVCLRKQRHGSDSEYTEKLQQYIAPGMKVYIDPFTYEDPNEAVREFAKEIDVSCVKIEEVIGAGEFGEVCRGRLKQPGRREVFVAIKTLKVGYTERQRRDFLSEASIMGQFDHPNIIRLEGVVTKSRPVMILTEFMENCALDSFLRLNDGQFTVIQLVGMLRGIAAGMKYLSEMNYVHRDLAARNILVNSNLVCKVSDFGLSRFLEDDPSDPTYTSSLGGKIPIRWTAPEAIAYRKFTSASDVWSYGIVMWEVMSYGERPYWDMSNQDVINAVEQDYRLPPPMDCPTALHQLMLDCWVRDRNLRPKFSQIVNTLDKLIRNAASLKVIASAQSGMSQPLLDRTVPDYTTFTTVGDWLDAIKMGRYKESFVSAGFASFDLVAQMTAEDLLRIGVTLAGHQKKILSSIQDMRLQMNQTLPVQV
T5 sequence (Q15759 whole entry): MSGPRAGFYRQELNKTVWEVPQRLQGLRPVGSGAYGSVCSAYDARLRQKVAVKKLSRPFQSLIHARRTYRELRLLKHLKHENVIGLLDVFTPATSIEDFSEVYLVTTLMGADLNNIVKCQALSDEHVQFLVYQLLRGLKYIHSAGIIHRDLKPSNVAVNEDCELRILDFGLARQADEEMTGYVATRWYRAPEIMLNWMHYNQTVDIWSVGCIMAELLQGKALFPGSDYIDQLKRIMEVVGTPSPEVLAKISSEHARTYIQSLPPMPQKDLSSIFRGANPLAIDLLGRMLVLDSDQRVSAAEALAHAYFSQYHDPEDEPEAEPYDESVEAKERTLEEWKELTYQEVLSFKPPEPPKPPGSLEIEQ
MAPKAPK2, sequence (P49137 whole entry): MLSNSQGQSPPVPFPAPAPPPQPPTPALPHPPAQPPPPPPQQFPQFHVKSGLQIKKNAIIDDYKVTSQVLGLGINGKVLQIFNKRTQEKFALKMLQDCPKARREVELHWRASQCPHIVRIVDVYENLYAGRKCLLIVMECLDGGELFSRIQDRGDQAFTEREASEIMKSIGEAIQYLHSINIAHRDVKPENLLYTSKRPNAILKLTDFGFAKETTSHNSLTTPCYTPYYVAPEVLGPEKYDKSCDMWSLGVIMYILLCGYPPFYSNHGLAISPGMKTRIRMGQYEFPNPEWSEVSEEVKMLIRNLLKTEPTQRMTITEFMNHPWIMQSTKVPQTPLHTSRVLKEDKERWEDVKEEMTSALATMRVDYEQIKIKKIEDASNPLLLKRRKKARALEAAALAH

Question: Which remaining binding at 100 µM [1] does the source give for C=C(C)[C@H]1CC=C(C)C(=O)C1 [S-carvone] here?
Answer: 78%

Question: And the remaining binding at 100 µM (TNK2)?
Answer: 93%

Question: What about the remaining binding at 100 µM (MEK6) of the same compound?
Answer: 82%

Question: And the remaining binding at 100 µM (MAPKAPK2)?
Answer: 77%

Question: And the remaining binding at 100 µM (CHEK1)?
Answer: 91%

Question: And the remaining binding at 100 µM [2]?
Answer: 96%

Question: And the remaining binding at 100 µM (VPS34)?
Answer: 64%

Question: And the remaining binding at 100 µM (KIT(L576P))?
Answer: 71%

Question: What about the remaining binding at 100 µM (EGFR(L747-T751del,Sins)) of the same compound?
Answer: 78%

Question: What about the remaining binding at 100 µM (EPHB1) of the same compound?
Answer: 88%

Question: What about the remaining binding at 100 µM (CSNK1A1L) of the same compound?
Answer: 85%

Question: What about the remaining binding at 100 µM (EPHA5) of the same compound?
Answer: 61%

Question: What about the remaining binding at 100 µM (ROCK2) of the same compound?
Answer: 66%

Question: What about the remaining binding at 100 µM (PDGFRA) of the same compound?
Answer: 80%

Question: What about the remaining binding at 100 µM (p38-beta) of the same compound?
Answer: 98%

Question: What about the remaining binding at 100 µM (DMPK) of the same compound?
Answer: 94%

Question: And the remaining binding at 100 µM (TNNI3K)?
Answer: 93%

Question: What about the remaining binding at 100 µM (CDK9) of the same compound?
Answer: 85%

Question: What about the remaining binding at 100 µM (CLK1) of the same compound?
Answer: 94%

Question: And the remaining binding at 100 µM (EPHB3)?
Answer: 62%

Question: And the remaining binding at 100 µM (STK33)?
Answer: 100%

Reference: publication PMC10174618, “Monoterpenoid aryl hydrocarbon receptor allosteric antagonists protect against ultraviolet skin damage in female mice” (Nature Communications, 2023)
